± gives the expanded uncertainty stated by the source.
Settings: Liquid; for viscosity: Capillary tube (Ostwald / Ubbelohde) method; for mass density: Vibrating tube method

SMILES: O [water]
- viscosity (293.36 K, 2061 kPa): 0.9917 ± 0.009 mPa·s
- mass density (293.36 K, 2061 kPa): 999.51 ± 0.7 kg/m3
- viscosity (293.36 K, 4085 kPa): 0.9931 ± 0.009 mPa·s
- mass density (293.36 K, 4085 kPa): 999.98 ± 0.7 kg/m3
- viscosity (293.37 K, 7118 kPa): 0.9928 ± 0.009 mPa·s
- mass density (293.37 K, 7118 kPa): 1001.28 ± 0.7 kg/m3
- viscosity (293.37 K, 26278 kPa): 0.9863 ± 0.0089 mPa·s
- mass density (293.37 K, 26278 kPa): 1010.35 ± 0.71 kg/m3
- viscosity (293.38 K, 11158 kPa): 0.9898 ± 0.009 mPa·s
- mass density (293.38 K, 11158 kPa): 1003.59 ± 0.7 kg/m3
- viscosity (293.38 K, 17210 kPa): 0.9897 ± 0.009 mPa·s
- mass density (293.38 K, 17210 kPa): 1006.18 ± 0.71 kg/m3
- viscosity (293.38 K, 20234 kPa): 0.988 ± 0.0089 mPa·s
- mass density (293.38 K, 20234 kPa): 1006.98 ± 0.71 kg/m3
- viscosity (293.38 K, 23255 kPa): 0.9883 ± 0.0089 mPa·s
- mass density (293.38 K, 23255 kPa): 1008.25 ± 0.71 kg/m3
- viscosity (313.08 K, 4076 kPa): 0.6535 ± 0.0061 mPa·s
- mass density (313.08 K, 4076 kPa): 994.07 ± 0.7 kg/m3
- viscosity (313.08 K, 7109 kPa): 0.6538 ± 0.0061 mPa·s
- mass density (313.08 K, 7109 kPa): 995.47 ± 0.7 kg/m3
- viscosity (313.08 K, 11150 kPa): 0.6546 ± 0.0061 mPa·s
- mass density (313.08 K, 11150 kPa): 996.66 ± 0.7 kg/m3
- viscosity (313.08 K, 14177 kPa): 0.655 ± 0.0061 mPa·s
- mass density (313.08 K, 14177 kPa): 997.99 ± 0.7 kg/m3
- viscosity (313.08 K, 17203 kPa): 0.6552 ± 0.0061 mPa·s
- mass density (313.08 K, 17203 kPa): 999.9 ± 0.7 kg/m3
- viscosity (313.08 K, 20228 kPa): 0.6557 ± 0.0061 mPa·s
- mass density (313.08 K, 20228 kPa): 1000.99 ± 0.7 kg/m3
- viscosity (313.08 K, 23250 kPa): 0.6559 ± 0.0061 mPa·s
- mass density (313.08 K, 23250 kPa): 1001.91 ± 0.7 kg/m3
- viscosity (313.08 K, 26271 kPa): 0.6562 ± 0.0061 mPa·s
- mass density (313.08 K, 26271 kPa): 1003.18 ± 0.7 kg/m3
- viscosity (313.08 K, 29788 kPa): 0.6586 ± 0.0061 mPa·s
- mass density (313.08 K, 29788 kPa): 1004.77 ± 0.7 kg/m3
- viscosity (313.09 K, 2053 kPa): 0.6538 ± 0.0061 mPa·s
- mass density (313.09 K, 2053 kPa): 992.98 ± 0.7 kg/m3
- viscosity (332.85 K, 14173 kPa): 0.4707 ± 0.0045 mPa·s
- mass density (332.85 K, 14173 kPa): 989.5 ± 0.7 kg/m3
- viscosity (332.85 K, 17195 kPa): 0.4712 ± 0.0045 mPa·s
- mass density (332.85 K, 17195 kPa): 990.83 ± 0.7 kg/m3
- viscosity (332.85 K, 20214 kPa): 0.4725 ± 0.0045 mPa·s
- mass density (332.85 K, 20214 kPa): 991.48 ± 0.7 kg/m3
- viscosity (332.85 K, 26252 kPa): 0.4751 ± 0.0045 mPa·s
- mass density (332.85 K, 26252 kPa): 994.06 ± 0.7 kg/m3
- viscosity (332.86 K, 4081 kPa): 0.4685 ± 0.0045 mPa·s
- mass density (332.86 K, 4081 kPa): 984.88 ± 0.69 kg/m3
- viscosity (332.86 K, 7113 kPa): 0.4685 ± 0.0045 mPa·s
- mass density (332.86 K, 7113 kPa): 985.99 ± 0.69 kg/m3
- viscosity (332.86 K, 11150 kPa): 0.47 ± 0.0045 mPa·s
- mass density (332.86 K, 11150 kPa): 988.22 ± 0.69 kg/m3
- viscosity (352.57 K, 4073 kPa): 0.3574 ± 0.0035 mPa·s
- mass density (352.57 K, 4073 kPa): 973.51 ± 0.68 kg/m3
- viscosity (352.58 K, 2044 kPa): 0.3565 ± 0.0035 mPa·s
- mass density (352.58 K, 2044 kPa): 972.64 ± 0.68 kg/m3
- viscosity (352.58 K, 7107 kPa): 0.3582 ± 0.0035 mPa·s
- mass density (352.58 K, 7107 kPa): 975.4 ± 0.68 kg/m3
- viscosity (352.59 K, 11142 kPa): 0.3592 ± 0.0035 mPa·s
- mass density (352.59 K, 11142 kPa): 977 ± 0.69 kg/m3
- viscosity (352.59 K, 14161 kPa): 0.36 ± 0.0036 mPa·s
- mass density (352.59 K, 14161 kPa): 977.85 ± 0.69 kg/m3
- viscosity (352.6 K, 17181 kPa): 0.361 ± 0.0036 mPa·s
- mass density (352.6 K, 17181 kPa): 979.13 ± 0.69 kg/m3
- viscosity (352.6 K, 20194 kPa): 0.3617 ± 0.0036 mPa·s
- mass density (352.6 K, 20194 kPa): 980.96 ± 0.69 kg/m3
- viscosity (352.6 K, 23203 kPa): 0.3627 ± 0.0036 mPa·s
- mass density (352.6 K, 23203 kPa): 982.36 ± 0.69 kg/m3
- viscosity (352.6 K, 26211 kPa): 0.3638 ± 0.0036 mPa·s
- mass density (352.6 K, 26211 kPa): 983.69 ± 0.69 kg/m3
- viscosity (352.6 K, 29715 kPa): 0.3648 ± 0.0036 mPa·s
- mass density (352.6 K, 29715 kPa): 984.92 ± 0.69 kg/m3

Reference: the NIST ThermoML archive (doi:10.1021/acs.jced.5b00152)
